Where two headings read alike, the source gives them in different places.
Tested on: fibroblastes dermiques humains normaux
Experiment: Protective effect on normal human dermal fibroblasts under oxidative stress (TBH 10^-4 M, 1 h); cell viability by neutral red uptake
Assay type: cell-based
Conditions: for activity at 0.1 µM: 0,1 µM
Procedure: Mesure de l'effet protecteur de l'acide γ-linolénique sur des fibroblastes dermiques humains normaux soumis à un stress oxydatif:
Des cultures de fibroblastes dermiques humains normaux sont réalisées selon la méthode décrite par Gilchrest B. A. dans J. Gerontol., vol.35, pp. 537-541, 1980.
A J(0) on ensemence des plaques multipuits de type COSTAR à raison de 50000 cellules par puits. Les cellules sont cultivées dans du milieu MEM Eagle (GIBCO) contenant 10% de sérum de veau foetal, 2 mM de L-glutamine, 1% acides aminés non essentiels, 1 mM pyruvate de sodium et 1% d'un mélange antibiotiques/antimicotiques vendu par la société GIBCO.
A J(+1) le milieu de culture est remplacé par du milieu MEM sans sérum de veau foetal contenant ou ne contenant pas (témoin) la substance à tester.
Des solutions d'acides gras essentiels sont préparés dans des solutions à 0.1 % d'albumine humaine. Les solutions mères sont à 2. 10^-3 M , la dilution minimale est à 10^-4 M dans le milieu de culture sans sérum de veau foetal. L'addition de vitamine E à 30 µM final permet d'éviter les problèmes d'autooxydation des acides gras. Les cellules sont traitées 3 jours sans changement de milieu.
Un stress oxydatif est induit à J(+4). Pour cela, le milieu de culture est retiré et les plaques sont rincées avec du tampon phosphate salin (PBS). 50% des puits sont traités par une solution de terbutyl hydroperoxyde (TBH) à 10^-4 M, les 2 autres puits étant laissés en PBS et l'incubation se poursuit pendant une heure dans un incubateur à 37°C en atmosphère contenant 5% de CO2.
Au bout d'une heure, les plaques sont rincées 3 fois au PBS pour enlever toute trace de TBH. Une solution mère de rouge neutre à […] est diluée au 1/40 dans un milieu minimum (MEM de marque GIBCO). La solution diluée est placée 1h au bain marie à 37°C pour une bonne dissolution puis filtrée sur 0.22 µm pour éliminer les cristaux résiduels. La solution ainsi préparée est ajoutée sur les cellules et les plaques sont mises à l'incubateur à 37°C en atmosphère contenant 5% de CO2 pour 3 h. Après incubation les plaques sont vidées de leur milieu et rincées au PBS. Une solution à 0.4% de formaldéhyde et 1% de chlorure de calcium dans de l'eau est ajoutée dans chaque puits pour une durée de 1 minute. On remplace alors cette solution par une solution à 49% d'éthanol pur dans l'eau et 1% d'acide acétique glacial. On laisse la coloration se développer 30 mn à température ambiante et on lit les plaques au spectrophotomètre à 540 nm.
Pour chaque condition (traité ou témoin), le calcul est effectué de la manière suivante :
Proportion de cellules stressées : rapport de la moyenne des densités optiques mesurées pour les puits traités sur la moyenne des densités optiques mesurées pour les puits non traités.
Pourcentage de résistance : Proportion de cellules stressées dans l'essai sur proportion de cellules stressées dans le témoin x 100
Par ce calcul, le témoin est considéré à 100 % de protection contre le stress oxydatif et les produits présentent un effet protecteur supérieur ou inférieur au témoin.

[1] = Fibroblast, table a, comparison of essential fatty acids, 10 µM, 3 days pretreatment, then TBH 10^-4 M 1 h, control = 100, read-out: Pourcentage de résistance
[2] = Fibroblast, table c, comparison with known antioxidants, 10 µM, control = 100, read-out: Pourcentage de résistance
[3] = Fibroblast, table c, comparison with known antioxidants, 100 µM, control = 100, read-out: Pourcentage de résistance
[4] = Fibroblast, table c, comparison with known antioxidants, 1 mM, control = 100, read-out: Pourcentage de résistance

Compound: CCCCC/C=C\C/C=C\CCCCCCCC(=O)O [Acide Linoléique]
- activity at 10 µM [1]: 100%

Compound: CCCCC/C=C\C/C=C\C/C=C\CCCCC(=O)O [Acide γ-Linolénique, acide γ-linolénique]
- activity at 0.01 µM (Fibroblast, table b, dose effect, 0,01 µM, control = 100, read-out: Pourcentage de résistance): 123%
- activity at 0.1 µM (Fibroblast, table b, dose effect, control = 100, read-out: Pourcentage de résistance): 130%
- activity at 1 µM (Fibroblast, table b, dose effect, 1 µM, control = 100, read-out: Pourcentage de résistance): 119%
- activity at 10 µM (Fibroblast, table b, dose effect, 10 µM, control = 100, read-out: Pourcentage de résistance): 121%
- activity at 100 µM (Fibroblast, table b, dose effect, 100 µM, control = 100, read-out: Pourcentage de résistance): 95%
- activity at 0.1 µM (Fibroblast, table c, comparison with known antioxidants, control = 100, read-out: Pourcentage de résistance): 112%
- activity at 10 µM [1]: 124%
- effet maximum (concentration of maximum effect in the dose-effect test (table b)): 0,1 µM
- résistance au stress oxydatif (conclusion in words on table a (10 µM), only this fatty acid among those tested): augmente la résistance au stress oxydatif
- effet protecteur du stress oxydatif (conclusion in words on table c, versus reference antioxidants): comparable à celui de molécules reconnues comme anti-oxydants de référence

Compound: N[C@@H](CCC(=O)N[C@@H](CS)C(=O)NCC(=O)O)C(=O)O [Glutathion]
- activity at 10 µM [2]: 95%
- activity at 100 µM [3]: 93%
- activity at 1000 µM [4]: 100%

Compound: CC(=O)N[C@@H](CS)C(=O)O [N-Acétyl cystéine]
- activity at 10 µM [2]: 94%
- activity at 100 µM [3]: 103%
- activity at 1000 µM [4]: 107%

Compound: S=C(S)N1CCCC1 [Pyrrolidine dithiocarbamate]
- activity at 20 µM (Fibroblast, table c, comparison with known antioxidants, 20 µM, control = 100, read-out: Pourcentage de résistance): 97%
- activity at 100 µM [3]: 112%

Compound: Vitamine E
- Pourcentage de résistance (table c, comparison with known antioxidants, 10 µM, control = 100): 112%
- Pourcentage de résistance (table c, comparison with known antioxidants, 100 µM, control = 100): 107%
- Pourcentage de résistance (table c, comparison with known antioxidants, 1 mM, control = 100): 111%
